Assays:
CLP-induced Sepsis model = assay: CLP-induced sepsis model; assay type: in vivo, ICR mice; conditions: 10 mg/kg intraperitoneal, same methods as Example 6-2 (four times at 12 hour intervals, 2 hours after CLP)
Method: After ICR mice (25-30 g in body weight; MJ Ltd.) had been anesthetized with pentobarbital, right abdominal sites of the mice were dissected in a length of 1 cm to expose their cecum, and sites below the ileocecal valve were ligated. And then, after 4˜6 punctures had been created on the cecum with 21-gauge needle, the abdomen was sutured again to cause peritonitis, thereby inducing Sepsis.
After the peritoneal cavity of mice had been exposed, it was washed with sterilized saline (2 ml). The resultant solution was diluted with HBSS (Sigma Chemical Co., USA) in a ratio of 1/1000, and then 10 μl of each diluted solution was spread on Trypticase Soy agar (BBL, Becton Dickinson Co., USA) plates. After overnight incubation at 37° C., colony forming unit (CFU) was measured.
7 mice were administered with 1-stearoyl LPC (Sigma Chemical Co., USA) dissolved in 1% BSA solution containing no fatty acid in an amount of 10 mg/kg by subcutaneous injection 2 and 14 hours after the CLP surgery, respectively (experimental group). The remaining 7 mice were administered with 1% BSA solution containing no fatty acid of the same amount as above in the same manner (control group). The numbers of intraperitoneal E. coli cells in the ICR mice of experimental and control groups were measured in accordance with Reference Example 3, 24 hours after the CLP surgery.
Each 10 ICR mice were intraperitoneally administered with 1-stearoyl LPC (Sigma Chemical Co., USA) dissolved in 1% BSA solution containing no fatty acid in amounts of 5, 10, and 20 mg/kg, respectively, four times at intervals of 12 hours, 2 hours after the CLP surgery (experimental group-1, -2 and -3). The remaining 10 ICR mice were administered only with 1% BSA solution containing no fatty acid (control group). And then, the survival rates of mice in experimental- and control groups were investigated over the lapse of time.
10 mice for the experimental group were intraperitoneally administered with 1-stearoyl LPC (Sigma Chemical Co., USA) dissolved in 1% BSA solution containing no fatty acid in an amount of 10 mg/kg, four times at intervals of 12 hours, 10 hours after the CLP surgery. The remaining 10 mice for the control group were administered only with 1% BSA solution containing no fatty acid. Thereafter, the survival rates of ICR mice in experimental- and control groups were investigated over the lapse of time.
CLP-induced Sepsis model mice were subcutaneously injected with SPC, instead of 1-stearoyl LPC, in dosages of 3 mg/kg and 30 mg/kg four times at intervals of 12 hours, 2 hours after the CLP surgery, respectively. The survival rates of mice were investigated.

neutrophils = assay: Inhibition of anti-apoptosis of neutrophils by inflammation mediators (AcOr/EtBr staining); assay type: cell-based, human; conditions: 15 μM and 30 μM, 1 hour before 1 μg/ml LPS, read after 24 hours
Source text: Neutrophils were isolated from healthy adults using discontinuous percoll gradient according to the method of Szucs, S. et al. (J. Immunol. Methods, 167: 245-251, 1994). First, plasmas were separated from heparinized whole blood, and red blood cells were depleted by dextran sedimentation. Thereafter, leukocytes were layered over a percoll gradient with densities of 1.077 and 1.094 (Pharmacia, Sweden). Separated neutrophil layers were recovered from the percoll gradient interface, and then washed with HBSS (Hank's balanced salt solution, Sigma Chemical Co., USA). The remaining pellet was resuspended in RPMI 1640 medium supplemented with 10% FBS (fetal bovine serum) and 2 mM gentamicin. As a result of the examination of the cytospin stained with Wright-Giemsa (Sigma Chemical Co., USA), it was observed that the resuspension solution contained 95% or more neutrophils. Also, as a result of examination using trypan blue dye exclusion method, 98% or more neutrophils were observed.
1×10^5 neutrophil cells isolated in above Example <1-1> were cultured in a 96-well plate to which RPMI1640 medium containing 10% FBS was added. Thereafter, they were treated with 1-stearoyl lysophosphatidylcoline (Sigma Chemical Co., USA) in concentrations of 15 μM and 30 μM, respectively. After 1 hour, they were treated with 1 μg/ml LPS (Sigma Chemical Co.). After 24 hours, the medium was removed from the plats, and the remaining cells were washed twice with PBS (phosphate-buffered saline) buffer at 4° C. The cells adhered to the bottom of the plate were all scraped and put into a 1.5-ml eppendorf tube. Then, they were centrifuged at 2500 rpm for 5 min, and the supernatant was removed. Again, 0.1 ml of PBS buffer at 4° C. was added to the pellet, which was then well mixed using pipetting. To 25 μl of the cell suspension was added 2 μl of AcOr/EtBr dye solution in which 100 μg/ml of acridine orange (AcOr) and 100 μg/ml of ethidium bromide (EtBr) were mixed. Then, the percentage of apoptotic cells/total cells was calculated with observing the neutrophil cells under a fluorescence microscope. […]

G2A = biological target: T1, G2A (Homo sapiens, UniProt Q9UNW8); conditions: reported by Kabarowski et al., Science 2001; cited from earlier work
T1 sequence (Q9UNW8 1-380): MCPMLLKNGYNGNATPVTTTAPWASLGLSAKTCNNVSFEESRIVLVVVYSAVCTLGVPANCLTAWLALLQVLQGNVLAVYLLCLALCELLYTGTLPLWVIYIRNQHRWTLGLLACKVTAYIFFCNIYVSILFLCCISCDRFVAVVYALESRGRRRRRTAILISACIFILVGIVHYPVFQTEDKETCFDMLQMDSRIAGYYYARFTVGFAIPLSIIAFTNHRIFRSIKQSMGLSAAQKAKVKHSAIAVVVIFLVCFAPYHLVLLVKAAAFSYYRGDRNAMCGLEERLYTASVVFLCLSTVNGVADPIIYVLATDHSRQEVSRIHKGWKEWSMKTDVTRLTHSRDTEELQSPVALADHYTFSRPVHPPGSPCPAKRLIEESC

## CCCCCCCCCCCCCC(=O)OC[C@@H](O)COP(=O)([O-])OCC[N+](C)(C)C [1-myristoyl LPC, 1-myristoyl (14:0) lysophospatidylcholine]
CLP-induced Sepsis model
  therapeutic effect against Sepsis (survival): excellent therapeutic effect

## CCCCCCCC/C=C\CCCCCCCC(=O)OCC(O)COP(=O)([O-])OCC[N+](C)(C)C (centres unmarked) [1-oleoyl LPC, 1-oleoyl (18:1) lysophosphatidylcholine]
CLP-induced Sepsis model
  therapeutic effect against Sepsis (survival): excellent therapeutic effect

## CCCCCCCCCCCCC/C=C/[C@@H](O)[C@@H](N)COP(=O)([O-])OCC[N+](C)(C)C [SPC, sphingosylphosphorylcholine]
neutrophils
  percentage of neutrophil apoptosis (apoptotic cells/total cells) that had been decreased by LPS: increased by SPC in a concentration-dependent manner
G2A
  affinity of G2A to the ligand: low affinity

## lysophosphatidylcholine
G2A
  affinity of G2A to the ligand: high affinity

Source: US7410955B2, “Therapeutic use of agonist ligands specific to G2A receptor” (Biosynergen, Inc., priority 2002, dated 2008)
